According to US20130079749A1, “Modular Drug Delivery System for Minimizing Trauma During and After Insertion of a Cochlear Lead” (ADVANCED BIONICS, LLC, priority 2007, published 2013):

Experiments:
[1] = In-vivo comparison of DXMb and DEX salt delivered over a week
Procedure: In one study performed by the Applicants, a comparison of DXMb and DEX salt was performed in an in-vivo model over the prior of a week. […] This surprising potency allows for increased therapeutic effects without increasing the volume of the drug or the size of the intracochlear lead.

[2] = Solubility of dexamethasone forms; format: physicochemical
auditory hair cells = assay: Organ of Corti photomicrographs thirty days after electrode insertion trauma; format: in vivo, guinea pig; conditions: lower middle turn of cochlea, thirty days after EIT, FIG. 11 microphotograph D
Text: The efficacy of DXMb was also studied by the Applicants in relationship to preserving residual hearing and internal nerve structures within the cochlea. In the study performed by the Applicants, 88 ears of 44 pigmented guinea pigs of 250 to 300 grams were randomly assigned to one of four groups as follows: group 1 corresponded to the contralateral, unoperated ears from groups 2 to 4 animals (n=44). Group 2 (n=15): electrode insertion trauma (EIT); these ears underwent EIT only via a cochleostomy and then immediate closure. Group 3 (n=15): EIT+artificial perilymph (EIT+AP) treated ears received EIT and immediately after trauma, insertion of a microcatheter into the cochleostomy site with AP perfused into the scala tympani (ST) for a period of 8 days. Group 4 (n=14): EIT dexamethasone base (EIT=DXMb) treated animals underwent EIT followed immediately by insertion of a microcatheter into the cochleostomy with ST perfusion of DXMb ([…]) in AP for a period of 8 days. Hearing measurements were performed before surgery, as well as on post-EIT days 0, 3, 7, 14, and 30. Tone bursts of 0.5, 1, 4, and 16 kHz were delivered to the ear at a rate of 29 Hz. The intensity of the stimulation was decreased by 10 dB sound pressure level (SPL) decrements until no auditory brainstem response was identified.
The organization of hair cells is in three distinct rows. […]

C[C@@H]1C[C@H]2[C@@H]3CCC4=CC(=O)C=C[C@]4(C)[C@@]3(F)[C@@H](O)C[C@]2(C)[C@@]1(O)C(=O)CO [DXMb, dexamethasone base]
effectiveness compared with DEX salt ([1]; DXMb 1 μL/hr at 70 μL/ml vs DEX salt 100 μL/ml at 1 μL/hr, in-vivo model, one week): just as effective
potency compared with salt forms of dexamethasone ([1]; administered into the intracochlear space after implantation surgeries): surprisingly more potent than salt forms of dexamethasone
solubility in aqueous preparations ([2]; aqueous preparations): limited solubility in aqueous preparations
solubility in organic solvents ([2]; organic solvents): highly soluble in organic solvents
hair cells and hair cell structure (auditory hair cells): substantially similar to that of the control group
